Data from PubChem BioAssay AID248 (DTP/NCI, 2004).
“And” between values parts separate entries of the source, which are not always exact repeats. Identical values can stand only once. Toxic doses and inconclusive results are not listed. Cut-off read from the data, not from the text of the source: active = T/C of 150% or more; inactive = T/C below 125%.

Test system: L1210 leukemia ip in BDF1 mice, survival T/C
Assay: NCI In Vivo Anticancer Drug Screen. Data for tumor model L1210 Leukemia (intraperitoneal) in B6D2F1 (BDF1) mice
Conditions: endpoint: mean survival time, higher = longer survival
Procedure, shortened: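 Tumor was transplanted into mice, which were then dosed with test compound or vehicle alone. Survival was recorded for each group, and the treated figure was expressed relative to the control figure.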

[1] = dose: 100.0 mg/kg/injection, schedule: Q04DX003 (ip), vehicle: Klucel (hydroxypropylcellulose) (HPC)
[2] = dose: 200.0 mg/kg/injection, schedule: Q04DX003 (ip), vehicle: Klucel (hydroxypropylcellulose) (HPC)
[3] = dose: 400.0 mg/kg/injection, schedule: Q04DX003 (ip), vehicle: Klucel (hydroxypropylcellulose) (HPC)
[4] = dose: 25.0 mg/kg/injection, schedule: Q04DX002 (ip), vehicle: Klucel (hydroxypropylcellulose) (HPC)
[5] = dose: 50.0 mg/kg/injection, schedule: Q04DX002 (ip), vehicle: Klucel (hydroxypropylcellulose) (HPC)
[6] = dose: 100.0 mg/kg/injection, schedule: Q04DX002 (ip), vehicle: Klucel (hydroxypropylcellulose) (HPC)
[7] = dose: 200.0 mg/kg/injection, schedule: Q04DX002 (ip), vehicle: Klucel (hydroxypropylcellulose) (HPC)
[8] = dose: 400.0 mg/kg/injection, schedule: Q04DX002 (ip), vehicle: Klucel (hydroxypropylcellulose) (HPC)
[9] = dose: 100.0 mg/kg/injection, schedule: Q01DX001 (ip), vehicle: saline
[10] = dose: 100.0 mg/kg/injection, schedule: Q01DX009 (ip), vehicle: Klucel (hydroxypropylcellulose) (HPC)
[11] = dose: 200.0 mg/kg/injection, schedule: Q01DX009 (ip), vehicle: Klucel (hydroxypropylcellulose) (HPC)
[12] = dose: 100.0 mg/kg/injection, schedule: Q04DX003 (ip), vehicle: saline with Tween-80
[13] = dose: 200.0 mg/kg/injection, schedule: Q04DX003 (ip), vehicle: saline with Tween-80
[14] = dose: 400.0 mg/kg/injection, schedule: Q04DX003 (ip), vehicle: saline with Tween-80
[15] = dose: 200.0 mg/kg/injection, schedule: Q01DX001 (ip), vehicle: saline
[16] = dose: 400.0 mg/kg/injection, schedule: Q01DX001 (ip), vehicle: saline
[17] = dose: 100.0 mg/kg/injection, schedule: Q01DX009 (ip), vehicle: saline
[18] = dose: 100.0 mg/kg/injection, schedule: Q04DX003 (ip), vehicle: saline
[19] = dose: 200.0 mg/kg/injection, schedule: Q04DX003 (ip), vehicle: saline
[20] = dose: 400.0 mg/kg/injection, schedule: Q04DX003 (ip), vehicle: saline
[21] = dose: 100.0 mg/kg/injection, schedule: Q01DX009 (ip), vehicle: saline with Tween-80
[22] = dose: 200.0 mg/kg/injection, schedule: Q01DX009 (ip), vehicle: saline with Tween-80
[23] = dose: 400.0 mg/kg/injection, schedule: Q01DX009 (ip), vehicle: saline with Tween-80

Measured: T/C

CCOC(=O)c1[nH]c(C)c(C(=O)OCC)c1-c1ccc(OC)cc1
inactive: dose: 100.0 mg/kg/injection, schedule: Q01DX001 (ip), vehicle: Klucel (hydroxypropylcellulose) (HPC) 100 % of control | [1] 96 % of control | dose: 200.0 mg/kg/injection, schedule: Q01DX001 (ip), vehicle: Klucel (hydroxypropylcellulose) (HPC) 93 % of control | [2] 108 % of control | dose: 400.0 mg/kg/injection, schedule: Q01DX001 (ip), vehicle: Klucel (hydroxypropylcellulose) (HPC) 98 % of control | [3] 96 % of control

C/C=C\S(=O)(=O)c1ccccc1
inactive: [4] 98 % of control | [5] 98 % of control | [6] 105 % of control | [7] 89 % of control

Oc1ccc(C2=NNC(c3ccc(O)cc3)=NN2)cc1
inactive: [6] 105 % of control | [7] 97 % of control | [8] 94 % of control

CCCCCCCCc1nc2c(c(=O)n(C)c(=O)n2C)n1C
inactive: dose: 45.0 mg/kg/injection, schedule: Q01DX001 (ip), vehicle: saline 95 % of control and 101 % of control | dose: 67.0 mg/kg/injection, schedule: Q01DX001 (ip), vehicle: saline 101 % of control and 104 % of control | [9] 97 % of control and 104 % of control | dose: 150.0 mg/kg/injection, schedule: Q01DX001 (ip), vehicle: saline 95 % of control and 101 % of control

O=CCSC(=S)NNc1ccccc1
inactive: [10] 106 % of control | [1] 88 % of control | [11] 95 % of control | [2] 91 % of control | [3] 96 % of control

c1ccc(-c2cccc([Si](c3ccccc3)(c3ccccc3)c3cccc(-c4ccccc4)c3)c2)cc1
inactive: [12] 92 % of control | [13] 88 % of control | [14] 97 % of control

COc1ccc(C2=NC(=O)C(C)(C(C)=O)O2)cc1 (configuration not stated)
inactive: [9] 93 % of control | [15] 90 % of control | [16] 90 % of control

CC(=O)c1cccc([N+](=O)[O-])c1
inactive: dose: 100.0 mg/kg/injection, schedule: Q01DX009 (ip), vehicle: other 91 % of control | dose: 100.0 mg/kg/injection, schedule: Q04DX003 (ip), vehicle: other 102 % of control | [12] 105 % of control | dose: 200.0 mg/kg/injection, schedule: Q01DX009 (ip), vehicle: other 105 % of control | dose: 200.0 mg/kg/injection, schedule: Q04DX003 (ip), vehicle: other 100 % of control | [13] 106 % of control | dose: 400.0 mg/kg/injection, schedule: Q04DX003 (ip), vehicle: other 94 % of control | [14] 108 % of control

CC(C)(C)NC(=O)C1C2CC3OC(=O)C1C3C2 (configuration not stated)
inactive: [12] 98 % of control | [13] 101 % of control and 90 % of control | [14] 101 % of control and 98 % of control

Cc1cc(C(C)(C)C)cc(O)c1O
inactive: dose: 100.0 mg/kg/injection, schedule: Q01DX001 (ip), vehicle: other 113 % of control | dose: 200.0 mg/kg/injection, schedule: Q01DX001 (ip), vehicle: other 93 % of control | dose: 400.0 mg/kg/injection, schedule: Q01DX001 (ip), vehicle: other 93 % of control

COC1=NS(=O)(=O)C2CCCC/C=C\C2O1 (configuration not stated)
inactive: dose: 150.0 mg/kg/injection, schedule: Q04DX002 (ip), vehicle: Klucel (hydroxypropylcellulose) (HPC) 110 % of control | dose: 300.0 mg/kg/injection, schedule: Q04DX002 (ip), vehicle: Klucel (hydroxypropylcellulose) (HPC) 103 % of control

CN(CSc1ccc([N+](=O)[O-])cc1)CSc1ccc([N+](=O)[O-])cc1
inactive: [9] 94 % of control | [15] 88 % of control | [16] 94 % of control

O=C1CCCC2C1C1(O)CCC2(O)c2cccc(O)c21 (configuration not stated)
inactive: dose: 6.25 mg/kg/injection, schedule: Q01DX009 (ip), vehicle: saline 109 % of control | dose: 12.5 mg/kg/injection, schedule: Q01DX009 (ip), vehicle: saline 102 % of control | dose: 25.0 mg/kg/injection, schedule: Q01DX009 (ip), vehicle: saline 101 % of control | dose: 50.0 mg/kg/injection, schedule: Q01DX009 (ip), vehicle: saline 98 % of control | [9] 96 % of control | [17] 91 % of control | [15] 103 % of control

O=C(COc1cccc(Cl)c1)Nc1cccc(CN2C(=O)c3ccccc3C2=O)c1
inactive: dose: 50.0 mg/kg/injection, schedule: Q04DX003 (ip), vehicle: Klucel (hydroxypropylcellulose) (HPC) 96 % of control | [1] 98 % of control | [2] 95 % of control

CN(C)Cc1c(CC(O)(c2ccccc2)c2ccccc2)ccc2ccccc12
inactive: dose: 50.0 mg/kg/injection, schedule: Q01DX001 (ip), vehicle: carboxymethylcellulose (CMC) 96 % of control | dose: 100.0 mg/kg/injection, schedule: Q01DX001 (ip), vehicle: carboxymethylcellulose (CMC) 100 % of control | dose: 200.0 mg/kg/injection, schedule: Q01DX001 (ip), vehicle: carboxymethylcellulose (CMC) 96 % of control | dose: 400.0 mg/kg/injection, schedule: Q01DX001 (ip), vehicle: carboxymethylcellulose (CMC) 105 % of control

CCC1SC(=S)N(C(=O)c2ccc([N+](=O)[O-])cc2)C1CC (configuration not stated)
inactive: [4] 111 % of control | [5] 95 % of control

CCOC(=O)C(=CN1CCCCCC1)C(=O)OCC
inactive: [18] 106 % of control | [19] 97 % of control | [20] 89 % of control

CCOCCCSP(SCCCOCC)SCCCOCC
inactive: [17] 101 % of control | dose: 200.0 mg/kg/injection, schedule: Q01DX009 (ip), vehicle: saline 102 % of control | dose: 400.0 mg/kg/injection, schedule: Q01DX009 (ip), vehicle: saline 104 % of control

OCCOc1c(Cl)cc(Cl)cc1Cl
inactive: dose: 50.0 mg/kg/injection, schedule: Q01DX009 (ip), vehicle: saline with Tween-80 100 % of control | [21] 94 % of control and 100 % of control | [12] 93 % of control | [22] 100 % of control | [13] 90 % of control | [23] 93 % of control | [14] 111 % of control

CCCCOC(=O)c1ccc(NC(=O)NCCC)cc1
inactive: [21] 90 % of control | [22] 88 % of control | [23] 95 % of control

CC1(C)CC2(CC3(C1)SCCS3)SCCS2
inactive: [9] 94 % of control | dose: 100.0 mg/kg/injection, schedule: Q04DX003 (ip), vehicle: acetone 89 % of control | [15] 97 % of control | dose: 200.0 mg/kg/injection, schedule: Q04DX003 (ip), vehicle: acetone 96 % of control | [16] 89 % of control | dose: 400.0 mg/kg/injection, schedule: Q04DX003 (ip), vehicle: acetone 91 % of control

CCOc1ccc(NC(N)=O)cc1
inactive: dose: 100.0 mg/kg/injection, schedule: Q04DX002 (ip), vehicle: gum acacia 107 % of control | dose: 200.0 mg/kg/injection, schedule: Q04DX002 (ip), vehicle: gum acacia 95 % of control | dose: 400.0 mg/kg/injection, schedule: Q04DX002 (ip), vehicle: gum acacia 100 % of control

Cc1nc2c(-c3ccccc3)cc(Cl)cc2s1
inactive: [18] 100 % of control | [19] 101 % of control | [20] 95 % of control

Cc1cc(C)c(NC(=O)Nc2ccccc2F)cc1C
inactive: dose: 25.0 mg/kg/injection, schedule: Q01DX009 (ip), vehicle: Klucel (hydroxypropylcellulose) (HPC) 98 % of control | dose: 50.0 mg/kg/injection, schedule: Q01DX009 (ip), vehicle: Klucel (hydroxypropylcellulose) (HPC) 93 % of control | [10] 96 % of control | [6] 102 % of control | [11] 89 % of control | [7] 91 % of control | [8] 115 % of control

O=C(/C=C/CBr)NC(Cc1ccccc1)C(=O)O (configuration not stated)
inactive: dose: 75.0 mg/kg/injection, schedule: Q01DX001 (ip), vehicle: other 104 % of control

O=CNc1ccc(C(=O)O)cc1
inactive: [21] 95 % of control | [22] 100 % of control | [23] 95 % of control
